Assay results reported in US12435031B2, “Compound with broad-spectrum antibacterial activity and its antibacterial composition” (CHINA AGRICULTURAL UNIVERSITY, priority 2023, dated 2025).
Converted amounts (≈) assume the structure as drawn. Read-outs that look alike come from different tables or passages of the source.

Tests used:
Bacillus = test: microbe, parasite or virus in culture; type: cell-based
Mycobacterium smegmatis = test: microbe, parasite or virus in culture; type: cell-based; conditions: Mycolicibacterium smegmatis, read-out: MICs
[1] = system: Staphylococcus aureus ATCC 25923; test: Growth curve (OD 600 nm, 24 h), Staphylococcus aureus; conditions: Staphylococcus aureus ATCC 25923, BAB159 at its MIC concentration, OD 600 nm over 24 hours
[2] = system: Aspergillus niger ATCC 96918; test: MIC against pathogenic fungi, Aspergillus niger; type: cell-based
[3] = Pharmacokinetics in rabbit plasma after intramuscular injection; type: in vivo, rabbits; conditions: for Cmax: 20 mg/kg
Procedure: In order to investigate the metabolic residues of BAB159 in model animals, rabbits were used as animal models to quantitatively analyze the levels of BAB159 in rabbit plasma. Male Chinese white rabbits weighing around 2 kg were adaptively fed for one week. Then, 2 mL of BAB159 suspension was injected into the left hind thigh muscle of the rabbits at a dose of 20 mg/kg b.w. Blood samples were collected from the ear vein at 8 time points, including 0.5, 1, 2, 4, 6, 8, 12, and 24 hours after administration. After pre-treatment of the plasma samples, UPLC-MS/MS detection was performed.

Enterococcus = test: microbe, parasite or virus in culture; type: cell-based
MRSA T144 [4] = conditions: Galleria mellonella infected with MRSA T144, 2 mg/kg b.w. 1 hour after infection, within 5 days
Clostridium perfringens [5] = test: microbe, parasite or virus in culture; type: cell-based; conditions: read-out: MICs
[6] = MIC against pathogenic fungi, Candida ATCC 6258; type: cell-based; conditions: ATCC6258; Candida albicans ATCC 6258 (Candida krusei ATCC 6258)
MRSA T144 [7] = conditions: BAB159 at its MIC concentration, OD 600 nm over 24 hours
Streptococcus = test: microbe, parasite or virus in culture; type: cell-based
Staphylococcus = test: microbe, parasite or virus in culture; type: cell-based
MRSA T144 [8] = conditions: C57BL/6J mice infected i.p. with MRSA T144, 10 mg/kg b.w. 1 hour after infection, within 3 days
[9] = system: Aspergillus flavus ATCC 11492; test: MIC against pathogenic fungi, Aspergillus flavus; type: cell-based; conditions: ATCC11492
Haemophilus = test: MIC, broth microdilution, Haemophilus; type: cell-based
[10] = system: Trichophyton ATCC MTA-4439; test: MIC against pathogenic fungi, Trichophyton; type: cell-based; conditions: Trichophyton, read-out: MICs
[11] = system: Candida albicans, Aspergillus flavus, Aspergillus niger, and Trichophyton; test: MIC against common clinical pathogenic fungi (summary); type: cell-based; conditions: range over species
Clostridium perfringens [12] = test: microbe, parasite or virus in culture; type: cell-based; conditions: Clostridium perfringens
[13] = read-out: minimum inhibitory concentration (MIC50)
[14] = male, Chinese white, im, rabbit plasma, intramuscular injection, 20 mg/kg b.w.
[15] = male, Chinese white, rabbit, plasma, im, rabbits, intramuscular injection, 20 mg/kg b.w.

Question: Which results are given for O=C(Nc1ccc(C(F)(F)F)c(Cl)c1Cl)c1cc(Cl)ccc1O [BAB159]?
Answer: MIC (Bacillus; read-out: MICs): 0.01 µg/mL (≈ 0.026 µM); MIC50 (Bacillus; [13]): 0.01 µg/mL (≈ 0.026 µM); MIC (Mycobacterium smegmatis): 2 µg/mL (≈ 5.2 µM); growth inhibition (growth curve) [1]: significantly inhibit the growth; MICs ([2]; Aspergillus niger ATCC 96918): 0.5 µg/mL; MIC ([2]; Aspergillus niger, ATCC96918, Aspergillus niger ATCC 96918): 0.25 µg/mL (≈ 0.65 µM); AUIC ([3]; AUC after intramuscular injection in rabbits to MIC50 against Staphylococcus): 109; AUC [3, 14]: 1710 ng·h/mL; Tmax [3, 14]: 6 h; Cmax ([3]; male, Chinese white, rabbit, plasma, im, rabbit plasma, intramuscular injection, 20 mg/kg b.w., read-out: Cmax): 207 ng/mL; AUC(0-t) [3, 15]: 1640 ± 70.5 ng·h/mL; half-life [3, 15]: 966 ± 216 min; Cmax ([3]; rabbit plasma, intramuscular injection, 20 mg/kg b.w.): 148.2 ± 13.05 ng/mL; MIC (Enterococcus; read-out: MICs): 0.25 µg/mL (≈ 0.65 µM); MIC50 (Enterococcus; [13]): 0.25 µg/mL (≈ 0.65 µM); protective rate (MRSA T144 [4]): 70%; MIC (Clostridium perfringens [5]): 0.25 µg/mL (≈ 0.65 µM); MIC [6]: 1 µg/mL (≈ 2.6 µM); growth inhibition (growth curve) (MRSA T144 [7]): significantly inhibit the growth; MIC (Streptococcus; read-out: MICs): 0.125 µg/mL (≈ 0.325 µM); MIC50 (Streptococcus; [13]): 0.125 µg/mL (≈ 0.325 µM); MIC50 (Staphylococcus; Staphylococcus): 0.0156 µg/mL (≈ 0.0406 µM); MIC (Staphylococcus; Staphylococcus, read-out: MICs): 0.01 µg/mL (≈ 0.026 µM); MIC50 (Staphylococcus; [13]): 0.01 µg/mL (≈ 0.026 µM); protective rate (MRSA T144 [8]): 100%; MIC [9]: 1 µg/mL (≈ 2.6 µM); MIC50 (Haemophilus; Haemophilus, read-out: minimum inhibitory concentration (MIC50)): 16 µg/mL (≈ 41.6 µM); MIC (Haemophilus; gram-negative bacteria such as Haemophilus): 8 to 32 µg/mL (≈ 20.8 to 83.2 µM); MIC [10]: 0.125 µg/mL (≈ 0.325 µM); MIC [11]: 0.5 to 1 µg/mL (≈ 1.3 to 2.6 µM); MIC50 (Clostridium perfringens [12]): 0.25 µg/mL (≈ 0.65 µM); MIC90 (Clostridium perfringens [12]): 0.5 µg/mL (≈ 1.3 µM); MIC (Clostridium perfringens [12]; read-out: MIC value against Clostridium perfringens, strain A3-1 (A-type)): 0.5 µg/mL (≈ 1.3 µM); MIC (Clostridium perfringens [12]; read-out: MIC value against Clostridium perfringens, strain A3-2 (A-type)): 0.25 µg/mL (≈ 0.65 µM); MIC (Clostridium perfringens [12]; read-out: MIC value against Clostridium perfringens, strain A57-1 (A-type)): 0.25 µg/mL (≈ 0.65 µM); MIC (Clostridium perfringens [12]; read-out: MIC value against Clostridium perfringens, strain B4 (B-type)): 0.5 µg/mL (≈ 1.3 µM); MIC (Clostridium perfringens [12]; read-out: MIC value against Clostridium perfringens, strain B5 (B-type)): 0.25 µg/mL (≈ 0.65 µM); MIC (Clostridium perfringens [12]; read-out: MIC value against Clostridium perfringens, strain C3 (C-type)): 0.5 µg/mL (≈ 1.3 µM); MIC (Clostridium perfringens [12]; read-out: MIC value against Clostridium perfringens, strain C8 (C-type)): 0.25 µg/mL (≈ 0.65 µM); MIC (Clostridium perfringens [12]; read-out: MIC value against Clostridium perfringens, strain C59-1 (C-type)): 0.25 µg/mL (≈ 0.65 µM); MIC (Clostridium perfringens [12]; read-out: MIC value against Clostridium perfringens, strain D14B (D-type)): 0.25 µg/mL (≈ 0.65 µM); MIC (Clostridium perfringens [12]; read-out: MIC value against Clostridium perfringens, strain F5-2 (F-type)): 0.25 µg/mL (≈ 0.65 µM); MIC (Clostridium perfringens [12]; read-out: MIC value against Clostridium perfringens, strain F6-1 (F-type)): 0.25 µg/mL (≈ 0.65 µM); MIC (Clostridium perfringens [12]; read-out: MIC value against Clostridium perfringens, strain F6-2 (F-type)): 0.5 µg/mL (≈ 1.3 µM); MIC (Clostridium perfringens [12]; read-out: MIC value against Clostridium perfringens, strain F6-2-1 (F-type)): 0.5 µg/mL (≈ 1.3 µM); MIC (Clostridium perfringens [12]; read-out: MIC value against Clostridium perfringens, strain F6-2-2 (F-type)): 0.25 µg/mL (≈ 0.65 µM); MIC (Clostridium perfringens [12]; read-out: MIC value against Clostridium perfringens, strain F7-1 (F-type)): 0.5 µg/mL (≈ 1.3 µM); MIC (Clostridium perfringens [12]; read-out: MIC value against Clostridium perfringens, strain F8-1 (F-type)): 0.5 µg/mL (≈ 1.3 µM); MIC (Clostridium perfringens [12]; read-out: MIC value against Clostridium perfringens, strain H12-1 (H-type)): 0.25 µg/mL (≈ 0.65 µM); MIC (Clostridium perfringens [12]; read-out: MIC value against Clostridium perfringens, strain H12-2 (H-type)): 0.25 µg/mL (≈ 0.65 µM); MIC (Clostridium perfringens [12]; read-out: MIC value against Clostridium perfringens, strain H13-1 (H-type)): 0.5 µg/mL (≈ 1.3 µM); MIC (Clostridium perfringens [12]; read-out: MIC value against Clostridium perfringens, strain H14-1 (H-type)): 0.5 µg/mL (≈ 1.3 µM); MIC (Clostridium perfringens [12]; read-out: MIC value against Clostridium perfringens, strain H14-2 (H-type)): 0.5 µg/mL (≈ 1.3 µM); MIC (Clostridium perfringens [12]; read-out: MIC value against Clostridium perfringens, strain H14-4 (H-type)): 0.5 µg/mL (≈ 1.3 µM); MIC (Clostridium perfringens [12]; read-out: MIC value against Clostridium perfringens, strain H15-1 (H-type)): 0.25 µg/mL (≈ 0.65 µM); MIC (Clostridium perfringens [12]; read-out: MIC value against Clostridium perfringens, strain H15-2 (H-type)): 0.5 µg/mL (≈ 1.3 µM); MIC (Clostridium perfringens [12]; read-out: MIC value against Clostridium perfringens, strain H15-3 (H-type)): 0.25 µg/mL (≈ 0.65 µM); MIC (Clostridium perfringens [12]; read-out: MIC value against Clostridium perfringens, strain H16 (H-type)): 0.25 µg/mL (≈ 0.65 µM); MIC (Clostridium perfringens [12]; read-out: highest MIC value, against 26 tested strains of Clostridium perfringens): 0.5 µg/mL (≈ 1.3 µM)
